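At the GI50, growth is halved. TGI denotes the concentration required for complete inhibition of growth.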
How the values were obtained:
Assay in all cases: NCI-60 cell line screen, 384-well format
[1] = tested on: MALME-3M melanoma
[2] = tested on: OVCAR-5 ovarian
[3] = tested on: A549 NSCLC
[4] = tested on: HCT-116 colon
[5] = tested on: HT29 colon
[6] = tested on: HL-60(TB) leukemia
[7] = tested on: SW-620 colon
[8] = tested on: EKVX NSCLC
[9] = tested on: RXF 393 renal
[10] = tested on: MDA-MB-468 breast
[11] = tested on: NCI-H23 lung
[12] = tested on: LOX IMVI melanoma
[13] = tested on: MDA-MB-231 breast
[14] = tested on: U251 glioblastoma
[15] = tested on: UO-31 renal
[16] = tested on: NCI/ADR-RES ovarian
[17] = tested on: SK-MEL-5 melanoma
[18] = tested on: SF-268 CNS
[19] = tested on: UACC-257 melanoma
[20] = tested on: SF-295 CNS
[21] = tested on: ACHN renal
[22] = tested on: CAKI-1 renal
[23] = tested on: IGROV1 ovarian
[24] = tested on: HS 578T breast
[25] = tested on: OVCAR-3 ovarian
[26] = tested on: UACC-62 melanoma
[27] = tested on: M14 melanoma
[28] = tested on: HOP-62 NSCLC
[29] = tested on: MDA-MB-435 melanoma
[30] = tested on: CCRF-CEM leukemia
[31] = tested on: KM12 colon
[32] = tested on: SR leukemia
[33] = tested on: PC-3 prostate
[34] = tested on: MCF7 breast
[35] = tested on: DU-145 prostate
[36] = tested on: K-562 leukemia
[37] = tested on: MOLT-4 leukemia
[38] = tested on: HCC-2998 colon
[39] = tested on: T-47D breast
[40] = tested on: A498 renal
[41] = tested on: SK-MEL-2 melanoma
[42] = tested on: HCT-15 colon
[43] = tested on: OVCAR-4 ovarian
[44] = tested on: NCI-H322M lung
[45] = tested on: 786-0 renal
[46] = tested on: HOP-92 NSCLC
[47] = tested on: SK-OV-3 ovarian

O=C1Nc2ccc(I)cc2/C1=C/c1cc(Br)c(O)c(Br)c1
GI50 [1]: 4.43 µM | TGI [1]: 20.8 µM | GI50 [2]: 25.1 µM | TGI [2]: 65 µM | GI50 [3]: 17.2 µM | TGI [3]: 46 µM | GI50 [4]: 16.3 µM | TGI [4]: 30.4 µM | GI50 [5]: 14.1 µM | TGI [5]: 31.1 µM | GI50 [6]: 11.3 µM | TGI [6]: 23.4 µM | GI50 [7]: 16.9 µM | TGI [7]: 31.4 µM | GI50 [8]: 14.3 µM | TGI [8]: 30.2 µM | GI50 [9]: 12.6 µM | TGI [9]: 25.5 µM | GI50 [10]: 11.7 µM | TGI [10]: 25.2 µM | GI50 [11]: 14.1 µM | TGI [11]: 27.6 µM | GI50 [12]: 13 µM | TGI [12]: 29.4 µM | GI50 [13]: 14 µM | TGI [13]: 31.7 µM | GI50 [14]: 11.7 µM | TGI [14]: 24.3 µM | GI50 [15]: 13.1 µM | TGI [15]: 28.2 µM | GI50 [16]: 18 µM | TGI [16]: 43.5 µM | GI50 [17]: 12.3 µM | TGI [17]: 24.8 µM | GI50 [18]: 16.3 µM | TGI [18]: 52 µM | GI50 [19]: 14.9 µM | TGI [19]: 33.3 µM | GI50 [20]: 11.9 µM | TGI [20]: 34.2 µM | GI50 [21]: 15.7 µM | TGI [21]: 35.7 µM | GI50 [22]: 21.3 µM | TGI [22]: 43.9 µM | GI50 [23]: 18.6 µM | TGI [23]: 41 µM | GI50 [24]: 14.4 µM | TGI [24]: 28.5 µM | GI50 [25]: 6.34 µM | TGI [25]: 19.2 µM | GI50 [26]: 7.69 µM | TGI [26]: 21 µM | GI50 [27]: 4.38 µM | TGI [27]: 18.6 µM | GI50 [28]: 20.4 µM | TGI [28]: 39.9 µM | GI50 [29]: 8.13 µM | TGI [29]: 29.1 µM | GI50 [30]: 11.3 µM | TGI [30]: 23.4 µM | GI50 [31]: 12.5 µM | TGI [31]: 27.6 µM | GI50 [32]: 6.31 µM | TGI [32]: 18.8 µM | GI50 [33]: 13.6 µM | TGI [33]: 27.1 µM | GI50 [34]: 10.1 µM | TGI [34]: 25.3 µM | GI50 [35]: 22.9 µM | TGI [35]: 88.9 µM | GI50 [36]: 17 µM | TGI [36]: 31.1 µM | GI50 [37]: 13.4 µM | TGI [37]: 26.2 µM | GI50 [38]: 22.8 µM | TGI [38]: 38 µM | GI50 [39]: 12.8 µM | TGI [39]: 30 µM | GI50 [40]: 16 µM | TGI [40]: 30.7 µM | GI50 [41]: 15.4 µM | TGI [41]: 30.7 µM | GI50 [42]: 15.7 µM | TGI [42]: 30.6 µM | GI50 [43]: 19.1 µM | TGI [43]: 47.1 µM | GI50 [44]: 15.7 µM | TGI [44]: 39.6 µM | GI50 [45]: 13.9 µM | TGI [45]: 27.4 µM | GI50 [46]: 15.6 µM | TGI [46]: 31.9 µM | GI50 [47]: 16.2 µM | TGI [47]: 34.8 µM
